# Measurements from patent US8119667B2, “Carbonates of fenicol antibiotics” (Schering-Plough Animal Health Corporation, priority 2005, dated 2012).
# How the values were obtained:
# [1] = Solubility in triacetin/benzyl alcohol 2:1 (volume/volume) solvent mixture; assay type: physicochemical; details: 20° C.
# Experimental: Florfenicol parent drug was not soluble in triacetin/benzyl alcohol 2:1 (volume/volume) even at concentrations as low as 10% (weight/volume). […] The combination of prodrug of Example 14 at 275 mg/ml and florfenicol at 100 mg/ml was soluble in triacetin/benzyl alcohol 2:1 (volume/volume) and provided a stable solution with 30% (weight/volume) content of florfenicol (Table 4, supra, entry 12).
# [2] = Syringeability of dosing solutions (dripping-syringe method); assay type: physicochemical
# Experimental: Table 4, below, provides evaluations of the syringeability of dosing solutions of selected florfenicol benzylic carbonate prodrugs at concentrations equivalent to 300 mg/ml florfenicol (30% weight/volume).
# High concentrations of fenicol or fenicol drug contained in a fenicol prodrug are often necessary for convenient administration of the necessary amount of the desired amount of the antibiotic. Due to the limited solubility of fenicols in many organic solvents or mixtures of solvents acceptable for injectable formulations the choice of solvents for preparation of highly concentrated florfenicol solutions is limited. As a result highly concentrated solutions of fenicol drugs in organic solvents or solvent mixtures may become highly viscous and difficult to administer by a syringe. Therefore the ability of fenicol benzylic carbonate prodrugs to dissolve in a wider range of organic solvents or mixtures of solvents acceptable for injectable formulations offered the potential to prepare highly concentrated solutions for injections with lower viscosity. […] Test solutions of florfenicol benzylic carbonates containing concentrations of florfenicol (mg/mL) equivalent to the concentration present in Nuflor® formulation were prepared. Syringeabilities of the solutions were evaluated by means of the “dripping syringe” method in which the dripping times (sec) of equal volumes of such solutions under free gravitational flow conditions from a vertically positioned syringe were measured at 15° C. After removing the plunger from a 5 ml polyethylene disposable syringe (5 ml Luer, Norm-Ject Zentrish/Henke Saas Wolf GMBH) and fitting the syringe with a disposable needle (B-D® 16G1 Precision Glide/BentonDickinson & CO) the test solutions were loaded from the top into the syringe and the time necessary for the free flow of 2 mL of solution (between 3 ml and 1 ml marks) was recorded in triplicate. The syringeabilities relative to Nuflor® were calculated by dividing the dripping time for the test solutions (entries 1-12) by the dripping time measured for the commercial sample of Nuflor® formulation (entry 13) As it is evident from the results in Table 4 the syringeabilities of tested solutions containing benzyl alcohol as viscosity diluent had relative syringeabilities <1.00 and were therefore better than Nuflor® (30% weight/volume florfenicol solution in propylene glycol/polyethylene glycol 300/2-methyl pyrolidinone). Due to their better syringeability these solutions represent more favorable formulations for injectable delivery of florfenicol. Solution of the florfenicol benzylic carbonate of the example 2 in triacetin/2-pyrolidinone—1/1 lacking the benzyl alcohol viscosity diluent was the only solution with syringeability poorer that than that of Nuflor® (entry 5).
# [3] = Aqueous solubility; assay type: physicochemical; details: aqueous medium (not further specified)
# Experimental: In some therapeutic applications florfenicol is administered in concentrated organic solution subcutaneously where it is known to form localized depot of the drug which results in the desired sustained release of the drug into the circulation. In such cases solubility of florfenicol in aqueous media represents one of important factors determining the rate of the sustained release. Another important factor affecting the sustained release of florfenicol from the subcutaneous depot site is the concentration of the dosing solution and the solvent composition of the formulation. Apart from the broader range of solvents which can be used for acceptable formulations of florfenicol benzylic carbonate prodrugs these prodrugs also allow a wide range of aqueous solubilities. Solubilities achieved with these prodrugs range from slightly to dramatically lower than that of florfenicol. Reduced aqueous solubilities of such prodrugs may be useful in controlling the rate of dissolution of the prodrug at the subcutaneous depot site and may allow achieving optimized sustained release of the parent drug.
# [4] = In vitro enzymatic release of parent florfenicol from prodrugs in bovine serum; assay type: in vitro ADME; details: for Florfenicol released from prodrugs (% of total) after treatment with bovine serum: 37° C.; for rates of florfenicol release in serum: bovine serum, among the compounds tested
# Source text: The ability of a prodrug derivative of a parent drug molecule to act efficiently in vivo as a source of the free parent drug determines the utility of a particular prodrug for treatment. The prodrug's ability to release the parent drug in vivo, in the presence of endogenous enzymes, can be determined by measuring the systemic levels of the parent drug after administration of the prodrug to the animal. This releasibility can also be assessed in vitro by measuring the release of the parent drug after mixing with animal whole blood, plasma or serum. Selected benzylic carbonate prodrugs of florfenicol were tested for release of florfenicol after in vitro mixing with bovine serum. […] A general trend of more lipophilic carbonates of florfenicol showing higher rates of degradation and release seems to be present among the compounds tested.
# 50 microliter of stock solution of carbonate pro-drug (10 mg/mL in DMSO) was added to 5 mL donor bovine serum and mixed. Aliquots of 400 microliter of the resulting solution were transferred into 1.5 mL plastic centrifuge tubes. Each plastic tube was placed into at 37° C. water bath for incubation. Samples were removed at 0, 1, 2, 4, 8, and 24 hours, and after addition of 400 microliter of acetonitrile to stop the reaction, rapidly stirred for 30 seconds. The precipitate was removed by centrifugation on an Eppendorf 5415G at 14000 rpm for 5 minutes. The clear supernatant solution was sampled for the HPLC analysis. The peak area of florfenicol was used to calculate the conversion of the prodrugs.
# [5] = prodrug concentration equivalent to 300 mg/ml florfenicol, Triacetin/benzyl alcohol - 2:1 (vol/vol), 15° C.
# [6] = prodrug concentration equivalent to 300 mg/ml florfenicol, Triacetin/benzyl alcohol - 2:1 (vol/vol), free flow of 2 mL at 15° C.
# [7] = 300 mg/ml, N-methyl 2-pyrolidinone/propylene glycol/polyethylene glycol 300, 15° C.
# [8] = prodrug concentration equivalent to 300 mg/ml florfenicol, Triacetin/benzyl alcohol/2-pyrolidinone - 2:1:1.5, 15° C.
SMILES,Solubility at selected concentration of contained florfenicol ([1]; 10% weight/volume florfenicol),Solubility at selected concentration of contained florfenicol ([1]; 20% weight/volume florfenicol),Solubility at selected concentration of contained florfenicol ([1]; 25% weight/volume florfenicol),Solubility at selected concentration of contained florfenicol ([1]; 30% weight/volume florfenicol),Solubility at selected concentration of contained florfenicol ([1]; 35% weight/volume florfenicol),Solubility at selected concentration of contained florfenicol ([1]; 37% weight/volume florfenicol),Solubility at selected concentration of contained florfenicol ([1]; 40% weight/volume florfenicol),solubility [3],Florfenicol released from prodrugs (% of total) after treatment with bovine serum ([4]; 0 h),melting point,further results
"CCCCOCCOC(=O)O[C@H](c1ccc(S(C)(=O)=O)cc1)[C@@H](CF)NC(=O)C(Cl)Cl [Example 13, (1R,2S)-2-(2,2-dichloroacetamido)-3-fluoro-1-(4-(methylsulfonyl)phenyl)propyl 2-butoxyethyl carbonate]",soluble,soluble,soluble,soluble,soluble,soluble,soluble,150 µg/mL,BQL,–,"Syringeability measurement: Relative to NUFLOR [2, 5]: 0.61; Syringeability measurement: Dripping time [2, 6]: 141 ± 5 s; Florfenicol released from prodrugs (% of total) after treatment with bovine serum ([4]; 1 h): BQL"
"CC(C)OC(=O)O[C@H](c1ccc(S(C)(=O)=O)cc1)[C@@H](CF)NC(=O)C(Cl)Cl [Example 4, (1R,2S)-2-(2,2-dichloroacetamido)-3-fluoro-1-(4-(methylsulfonyl)phenyl)propyl isopropyl carbonate]",–,–,–,–,–,–,–,100 µg/mL,BQL,148 to 150 °C,"Syringeability measurement: Dripping time [2, 8]: 164 ± 3 s; Syringeability measurement: Relative to NUFLOR [2, 8]: 0.70; Florfenicol released from prodrugs (% of total) after treatment with bovine serum ([4]; 1 h): BQL; Florfenicol released from prodrugs (% of total) after treatment with bovine serum ([4]; 2 h): BQL"
CCOC(=O)[C@H](C)OC(=O)O[C@H](c1ccc(S(C)(=O)=O)cc1)[C@@H](CF)NC(=O)C(Cl)Cl [Example 17],–,–,–,–,–,–,–,550 µg/mL,–,44 to 54 °C,–
"CCOCCOC(=O)O[C@H](c1ccc(S(C)(=O)=O)cc1)[C@@H](CF)NC(=O)C(Cl)Cl [Example 12, (1R,2S)-2-(2,2-dichloroacetamido)-3-fluoro-1-(4-(methylsulfonyl)phenyl)propyl 2-ethoxyethyl carbonate]",–,–,–,–,–,–,–,350 µg/mL,–,88 to 90 °C,–
"COCCOC(=O)O[C@H](c1ccc(S(C)(=O)=O)cc1)[C@@H](CF)NC(=O)C(Cl)Cl [Example 11, (1R,2S)-2-(2,2-dichloroacetamido)-3-fluoro-1-(4-(methylsulfonyl)phenyl)propyl 2-methoxyethyl carbonate]",–,–,–,–,–,–,–,770 µg/mL,–,–,–

# Second part, led by results:
Solubility at selected concentration of contained florfenicol ([1]; 10% weight/volume florfenicol),Solubility at selected concentration of contained florfenicol ([1]; 20% weight/volume florfenicol),Solubility at selected concentration of contained florfenicol ([1]; 25% weight/volume florfenicol),Solubility at selected concentration of contained florfenicol ([1]; 30% weight/volume florfenicol),Solubility at selected concentration of contained florfenicol ([1]; 35% weight/volume florfenicol),Solubility at selected concentration of contained florfenicol ([1]; 37% weight/volume florfenicol),Solubility at selected concentration of contained florfenicol ([1]; 40% weight/volume florfenicol),solubility [3],Florfenicol released from prodrugs (% of total) after treatment with bovine serum ([4]; 0 h),melting point,SMILES,further results
soluble,soluble,soluble,soluble,soluble,soluble,insoluble,32 µg/mL,BQL,105 to 106 °C,"CS(=O)(=O)c1ccc([C@@H](OC(=O)OCc2ccccc2)[C@@H](CF)NC(=O)C(Cl)Cl)cc1 [Example 14, Benzyl(1R,2S)-2-(2,2-dichloroacetamido)-3-fluoro-1-(4-(methylsulfonyl)phenyl)propyl carbonate]","Syringeability measurement: Relative to NUFLOR [2, 5]: 0.88; Syringeability measurement: Dripping time [2, 6]: 204 ± 9 s; rates of florfenicol release in serum [4]: highest rates"
not soluble,insoluble,insoluble,insoluble,insoluble,insoluble,insoluble,1530 µg/mL,–,–,"CS(=O)(=O)c1ccc([C@@H](O)[C@@H](CF)NC(=O)C(Cl)Cl)cc1 [Florfenicol, D-(threo)-1-(4-methylsulfonylphenyl)-2-dichloroacetamido-3-fluoro-1-propanol, reference compound]","Solubility at selected concentration of contained florfenicol ([1]; 10% weight/volume florfenicol, listed as florfenicol): insoluble; Syringeability measurement: Dripping time [2, 7]: 233 ± 2 s; Syringeability measurement: Relative to NUFLOR [2, 7]: 1.00"
soluble,soluble,soluble,soluble,soluble,soluble,soluble,45 µg/mL,BQL,110 to 112 °C,"CS(=O)(=O)c1ccc([C@@H](OC(=O)OCCOC(=O)O[C@H](c2ccc(S(C)(=O)=O)cc2)[C@@H](CF)NC(=O)C(Cl)Cl)[C@@H](CF)NC(=O)C(Cl)Cl)cc1 [Example 26, Bis((1R,2S)-2-(2,2-dichloroacetamido)-3-fluoro-1-(4-(methylsulfonyl)phenyl)propyl)ethane-1,2-diyl dicarbonate]","Syringeability measurement: Relative to NUFLOR [2, 5]: 0.93; Syringeability measurement: Dripping time [2, 6]: 216 ± 8 s; Florfenicol released from prodrugs (% of total) after treatment with bovine serum ([4]; 1 h): BQL"
–,–,–,–,–,–,–,7 µg/mL,–,156 to 158 °C,"CC(C)COC(=O)O[C@H](c1ccc(S(C)(=O)=O)cc1)[C@@H](CF)NC(=O)C(Cl)Cl [Example 5, (1R,2S)-2-(2,2-dichloroacetamido)-3-fluoro-1-(4-(methylsulfonyl)phenyl)propyl isobutyl carbonate]",–
–,–,–,–,–,–,–,25 µg/mL,BQL,120 to 122 °C,"CC(C)CCOC(=O)O[C@H](c1ccc(S(C)(=O)=O)cc1)[C@@H](CF)NC(=O)C(Cl)Cl [Example 8, (1R,2S)-2-(2,2-dichloroacetamido)-3-fluoro-1-(4-(methylsulfonyl)phenyl)propyl isopentyl carbonate]","Syringeability measurement: Dripping time [2, 8]: 157 ± 1 s; Syringeability measurement: Relative to NUFLOR [2, 8]: 0.67; rates of florfenicol release in serum [4]: highest rates"
–,–,–,–,–,–,–,120 µg/mL,–,132 to 134 °C,"CS(=O)(=O)c1ccc([C@@H](OC(=O)OCC2CC2)[C@@H](CF)NC(=O)C(Cl)Cl)cc1 [Example 6, Cyclopropylmethyl(1R,2S)-2-(2,2-dichloroacetamido)-3-fluoro-1-(4-(methylsulfonyl)phenyl)propyl carbonate]",–
